Assay results as given in patent publication US20130189741A1, “COMPOSITIONS AND METHODS FOR REPROGRAMMING MAMMALIAN CELLS” (Cellscript, Inc., priority 2009, published 2013).

System: BJ fibroblasts
Assay: Feeder-free reprogramming of BJ fibroblasts to iPSCs on MATRIGEL GFR matrix (Example 11)
Assay type: cell-based, human
Settings: Day 17
Method: In EXAMPLE 11 embodiments, each in vitro-synthesized pseudouridine-containing ssRNA (i.e., synthesized using ΨTP in place of UTP in the IVT reaction) that encoded an iPSC induction factor [e.g., OCT4, SOX2, KLF4, LIN28, and either cMYC or cMYC(T58A)] or other pseudo-uridine-containing ssRNAs transfected together with the iPSC induction factors was treated with RNase III with 1 mM Mg(OAc)2 prior to capping and tailing of the ssRNA. In this EXAMPLE 11, the RNAse III treatment reactions also contained 0.8 U/microliter SCRIPTGUARD™ RNase inhibitor (CELLSCRIPT, INC.).
Prior to use for reprogramming, BJ fibroblasts (ATCC) were plated 5×10^4 cells per well on 6-well tissue culture plates coated with 83 ng per well of MATRIGEL™ GFR matrix (BD Biosciences, San Jose, Calif.) in Advanced MEM (Invitrogen, Carlsbad, Calif.) supplemented with 10% FBS (Fisher) and 2 mM GLUTAMAX™-I (Invitrogen, Carlsbad, Calif.), a minimum essential medium (MEM) useful for growth of fibroblast cells.
On the following day, the medium was changed to a “Feeder-free Reprogramming Medium” developed by the present applicants. This Feeder-free Reprogramming Medium was composed of Dulbecco's modified Eagle medium with nutrient mixture F-12 (DMEM/F12; (DMEM/F12; Invitrogen, Carlsbad, Calif.) supplemented with 20% KNOCKOUT™ serum replacement (Invitrogen), 2 mM GLUTAMAX™-I (Invitrogen), 0.1 mM non-essential amino acids solution (Invitrogen), 2 micromolar of the transforming growth factor 0 (TGFβ) inhibitor STEMOLECULE™ SB431542 (Stemgent®, Cambridge, Mass., USA), 0.5 micromolar of the MEK signaling pathway inhibitor STEMOLECULE™ PD0325901 (Stemgent), and/or 10 ng/ml the recombinant mouse cytokine, leukemia inhibitory factor (LIF or mLIF; Invitrogen, Carlsbad, Calif.), and 100 ng/ml basic human recombinant fibroblast growth factor (FGF; Invitrogen) with penicillin-streptomycin antibiotics. In some experiments, a lower or higher concentration of one or more of these inhibitors is used (e.g., 1-20 micromolar of the TGFβ inhibitor, 0.5-10 micromolar of the MEK signaling inhibitor, and/or 5-50 ng/ml the recombinant mouse cytokine, leukemia inhibitory factor). Since some of the molecules being inhibited may be introduced by the reagents or media used (e.g., TGFβ in the MATRIGEL™ or other extracellular matrix, the concentrations of the inhibitors used may vary based on the reagents and media used. In some experiments, the TGFβ inhibitor, MEK signaling inhibitor, and/or LIF was omitted from the feeder-free reprogramming medium. The Feeder-free Reprogramming Medium was changed daily one hour prior to each transfection with mRNA reprogramming factors. […] kit (Minis Bio LLC, Madison, Wis., USA) as described in the product literature: Briefly, a solution comprising a mixture of all of the mRNA reprogramming factors was diluted with 250 microliters of OPTI-MEM® I reduced serum medium (Invitrogen, Carlsbad, Calif.), and then 2.4 microliters of TRANSIT™ BOOST was added and mixed, followed by 2.4 microliters of the TRANSIT™ transfection reagent. In some embodiments, no inhibitor of expression of an innate immune response pathway was used. In some other embodiments, 132 ng of pseudouridine-containing mRNA encoding the B18R protein was added to the reprogramming factors comprising mRNA encoding OCT4, SOX2, KLF4, LIN28, and cMYC for reprogramming BJ fibroblasts. This transfection mix was applied dropwise to cells. Cells were then incubated at 37° C. in 5% CO2 until the next day's transfection. After 18 transfections, the medium was changed to a different “iPSC Maintenance Medium” that that was composed of DMEM/F12 supplemented with 20% KNOCKOUT™ serum replacement, 1 mM L-glutamine, 0.1 mM non-essential amino acids solution, and 100 ng/ml basic human recombinant fibroblast growth factor (FGF) (all from Invitrogen, Carlsbad, Calif.) with penicillin-streptomycin antibiotics for a few more days until iPSC colonies were big enough to pick manually. […]

Structure (SMILES)	iPSC Colonies Observed (SB431542 0 μM, five-factor Ψ-mRNA mix daily for 17 days)	iPSC Colonies Observed (SB431542 1 μM)	iPSC Colonies Observed (SB431542 2 μM)	iPSC Colonies Observed (SB431542 4 μM)	iPSC Colonies Observed (PD0325901 0 μM, 2 micromolar SB431542)	iPSC Colonies Observed (PD0325901 0.5 μM, 2 micromolar SB431542)	iPSC Colonies Observed (PD0325901 1 μM, 2 micromolar SB431542)	iPSC Colonies Observed (PD0325901 2 μM, 2 micromolar SB431542)	iPSC Colonies Observed (PD0325901 10 μM, 2 micromolar SB431542)	iPSC Colonies Observed (PD0325901 15 μM, 2 micromolar SB431542)
NC(=O)c1ccc(-c2nc(-c3ccc4c(c3)OCO4)c(-c3ccccn3)[nH]2)cc1 [SB431542]	0	9	71	160						
O=C(NOC[C@H](O)CO)c1ccc(F)c(F)c1Nc1ccc(I)cc1F [PD0325901]					1	77	27	94	11	0
